The values below come from patent US20250296959A1, “B7-H3 TARGETING PEPTIDES AND CONSTRUCTS THEREOF” (Mariana Oncology Inc., priority 2024, published 2025).

This assay has as its target T1, human 4lg B7-H3 (Homo sapiens, UniProt Q5ZPR3).
T1 sequence (Q5ZPR3 29-534): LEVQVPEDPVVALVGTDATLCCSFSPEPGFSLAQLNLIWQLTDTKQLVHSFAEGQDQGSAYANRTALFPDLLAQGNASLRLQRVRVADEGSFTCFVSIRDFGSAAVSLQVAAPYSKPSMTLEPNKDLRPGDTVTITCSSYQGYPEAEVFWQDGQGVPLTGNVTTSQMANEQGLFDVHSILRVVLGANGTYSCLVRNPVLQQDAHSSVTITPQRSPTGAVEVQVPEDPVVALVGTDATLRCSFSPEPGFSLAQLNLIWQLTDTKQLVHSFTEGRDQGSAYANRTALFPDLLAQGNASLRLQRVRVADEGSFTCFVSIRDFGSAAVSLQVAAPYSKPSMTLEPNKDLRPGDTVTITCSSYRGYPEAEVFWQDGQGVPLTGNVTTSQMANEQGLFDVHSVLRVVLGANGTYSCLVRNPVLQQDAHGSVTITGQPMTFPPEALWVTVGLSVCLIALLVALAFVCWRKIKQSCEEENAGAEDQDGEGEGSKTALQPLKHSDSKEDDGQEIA
Briefly: Affinity determination by surface plasmon resonance (SPR) to 4Ig B7-H3. The following applies: 4Ig B7-H3. A general note: Surface plasmon resonance follows binding to a sensor surface in real time, without labels.

Where [1] appears, read: SPR KD—37° C., 37° C. flow cell temperature.
Setting [2] is: SPR KD—25° C., 25° C. flow cell temperature.

Each structure is given as a SMILES string. Starred links: 1 amine or outer side, 2 acyl side, 3 side chain; linkers in the order of their positions; H or OH if unused. Positions of bridges follow the written chain, without caps; N, C: chain ends. Non-standard residues stand in square brackets, D forms with d. Residues, ends and D or L forms follow the SMILES beside them. *: point of attachment. Ala(1-CH2CO2H-4-piperidyl) = N[C@@H](CC1CCN(CC(=O)O)CC1)C(=O)O; Ala(piperidin-4-yl) = O=C([C@H](CC1CCN([*:3])CC1)N[*:1])[*:2]; DOTA = O=C(O)CN1CCN(CC(=O)O)CCN(CC(=O)*)CCN(CC(=O)O)CC1; Trp(1-CH2COOH) = N[C@@H](Cc1cn(CC(=O)O)c2ccccc12)C(=O)O; Phe(4-COOH) = N[C@@H](Cc1ccc(C(=O)O)cc1)C(=O)O; Trp(5-F) = N[C@@H](Cc1c[nH]c2ccc(F)cc12)C(=O)O; Ala(4-THP) = N[C@@H](CC1CCOCC1)C(=O)O; X3 = O=C([C@H](CCC1CCC1)N[*:1])[*:2]; Val(3-OH) = CC(C)(O)[C@H](N)C(=O)O; 4Pal = N[C@@H](Cc1ccncc1)C(=O)O; NMeK = CN[C@@H](CCCCN)C(=O)O; Tle = CC(C)(C)[C@H](N)C(=O)O; hLeu = CC(C)CC[C@H](N)C(=O)O; Nle = CCCC[C@H](N)C(=O)O Where only a bound is given, the exact number is not on record here.

As for `CC(=O)N[C@@H](CCC(C)C)C(=O)N[C@@H](Cc1ccc(O)cc1)C(=O)N[C@H]1CSSC[C@@H](C(=O)N[C@@H](Cc2c[nH]c3ccc(F)cc23)C(=O)N[C@@H](Cc2ccccc2)C(=O)N[C@H](C(=O)N[C@H](CCC(=O)O)C(N)=O)C(C)(C)O)NC(=O)[C@H](Cc2ccc(O)cc2)NC(=O)[C@H](C(C)C)NC(=O)[C@H](CC(=O)O)NC(=O)[C@H](CC2CCOCC2)NC(=O)[C@H](CCCCNC(=O)CN2CCN(CC(=O)O)CCN(CC(=O)O)CCN(CC(=O)O)CC2)NC(=O)CNC(=O)[C@H](C(C)(C)C)NC1=O` [compound 423, Ac-hLeu-Y-C-Tbg-G-Lys(DOTA)-ThpA-D-V-Y-C-5FW-F-hydroxyVal-dGlu-CONH2] (Ac-[hLeu]YC[Tle]GK(DOTA)[Ala(4-THP)]DVYC[Trp(5-F)]F[Val(3-OH)][dE]-NH2; disulfide 3-11), the Kd under setting [1] lay within 1 to 10 nM.
For the compound `CCCC[C@@H]1NC(=O)[C@H](C(C)C)NC(=O)[C@H](CC(=O)O)NC(=O)[C@H](Cc2ccc(C(=O)O)cc2)NC(=O)[C@H](CCCCN)NC(=O)CNC(=O)[C@H](C(C)C)NC(=O)[C@@H](NC(=O)[C@H](Cc2ccc(O)cc2)NC(=O)[C@H](CCC(C)C)NC(C)=O)CSSC[C@@H](C(=O)N[C@@H](Cc2c[nH]c3ccc(F)cc23)C(=O)N[C@@H](Cc2ccccc2)C(=O)N2CCC[C@H]2C(=O)N[C@H](CCCCNC(=O)CN2CCN(CC(=O)O)CCN(CC(=O)O)CCN(CC(=O)O)CC2)C(N)=O)NC1=O` [compound 287, Ac-hLeu-Y-C-V-G-K-4COOHPhe-D-V-Nle-C-5FW-F-Pro-dLys(DOTA)-CONH2] (Ac-[hLeu]YCVGK[Phe(4-COOH)]DV[Nle]C[Trp(5-F)]FP[dK](DOTA)-NH2; disulfide 3-11), the Kd under setting [2] was in the range of 10 to 100 nM.
On the same count and under the same terms, to `CC(=O)N[C@@H](CCC(C)C)C(=O)N[C@@H](Cc1ccc(O)cc1)C(=O)N[C@H]1CSSC[C@@H](C(=O)N[C@@H](Cc2c[nH]c3ccccc23)C(=O)N[C@@H](Cc2ccccc2)C(=O)N[C@H](C(=O)N[C@H](CCCCNC(=O)CN2CCN(CC(=O)O)CCN(CC(=O)O)CCN(CC(=O)O)CC2)C(N)=O)[C@@H](C)O)NC(=O)[C@H](Cc2ccc(O)cc2)NC(=O)[C@H](C(C)C)NC(=O)[C@H](CC(=O)O)NC(=O)[C@H](Cc2ccncc2)NC(=O)[C@H](CCCCN)NC(=O)CNC(=O)[C@H](C(C)C)NC1=O` [compound 155, Ac-hLeu-Y-C-V-G-K-4PyA-D-V-Y-C-W-F-Thr-dLys(DOTA)-CONH2] (Ac-[hLeu]YCVGK[4Pal]DVYCWFT[dK](DOTA)-NH2; disulfide 3-11) belongs less than 1 nM; to `CC(=O)N[C@@H](CCC(C)C)C(=O)N[C@@H](Cc1ccc(O)cc1)C(=O)N[C@H]1CSSC[C@@H](C(=O)N[C@@H](Cc2c[nH]c3ccc(F)cc23)C(=O)N[C@@H](Cc2ccccc2)C(=O)N[C@H](C(=O)N[C@H](CCCCNC(=O)CN2CCN(CC(=O)O)CCN(CC(=O)O)CCN(CC(=O)O)CC2)C(=O)O)[C@@H](C)O)NC(=O)[C@H](Cc2ccc(O)cc2)NC(=O)[C@H](C(C)C)NC(=O)[C@H](CC(=O)O)NC(=O)[C@H](CC2CCOCC2)NC(=O)[C@H](CCCCN)NC(=O)CNC(=O)[C@H](C(C)C)NC1=O` [compound 331, Ac-hLeu-Y-C-V-G-K-ThpA-D-V-Y-C-5FW-F-Thr-dLys(DOTA)-COOH] (Ac-[hLeu]YCVGK[Ala(4-THP)]DVYC[Trp(5-F)]FT[dK](DOTA)-OH; disulfide 3-11), less than 1 nM.
The compound `CC(=O)N[C@@H](CCC(C)C)C(=O)N[C@@H](Cc1ccc(O)cc1)C(=O)N[C@H]1CSSC[C@@H](C(=O)N[C@@H](Cc2c[nH]c3ccc(F)cc23)C(=O)N[C@@H](Cc2ccccc2)C(=O)N[C@H](C(=O)O)[C@@H](C)O)NC(=O)[C@H](Cc2ccc(O)cc2)NC(=O)[C@H](C(C)C)NC(=O)[C@H](CC(=O)O)NC(=O)[C@H](CC2CCOCC2)NC(=O)[C@H](CCCCNC(=O)CN2CCN(CC(=O)O)CCN(CC(=O)O)CCN(CC(=O)O)CC2)NC(=O)CNC(=O)[C@H](C(C)(C)C)NC1=O` [compound 328, Ac-hLeu-Y-C-Tbg-G-Lys(DOTA)-ThpA-D-V-Y-C-5FW-F-Thr-COOH] (Ac-[hLeu]YC[Tle]GK(DOTA)[Ala(4-THP)]DVYC[Trp(5-F)]FT-OH; disulfide 3-11) returned a Kd under setting [1] of 10 to 100 nM.
The same measure, in the same setting: to `CC(=O)N[C@@H](CCC(C)C)C(=O)N[C@@H](Cc1ccc(O)cc1)C(=O)N[C@H]1CSSC[C@@H](C(=O)N[C@@H](Cc2cn(CC(=O)O)c3ccccc23)C(=O)N[C@@H](Cc2ccccc2)C(=O)N[C@H](C(=O)N[C@H](CCCCNC(=O)CN2CCN(CC(=O)O)CCN(CC(=O)O)CCN(CC(=O)O)CC2)C(=O)O)C(C)(C)O)NC(=O)[C@H](Cc2ccc(O)cc2)NC(=O)[C@H](C(C)C)NC(=O)[C@H](CC(=O)O)NC(=O)[C@H](CC2CCOCC2)NC(=O)[C@H](CCCCN)NC(=O)CNC(=O)[C@H](C(C)(C)C)NC1=O` [compound 396, Ac-hLeu-Y-C-Tbg-G-K-ThpA-D-V-Y-C-Trp(CH2COOH)-F-hydroxyVal-dLys(DOTA)-COOH] (Ac-[hLeu]YC[Tle]GK[Ala(4-THP)]DVYC[Trp(1-CH2COOH)]F[Val(3-OH)][dK](DOTA)-OH; disulfide 3-11) belongs 100 to 300 nM; to `CC(=O)N[C@@H](CCC(C)C)C(=O)N[C@@H](Cc1ccc(O)cc1)C(=O)N[C@H]1CSSC[C@@H](C(=O)N[C@@H](Cc2c[nH]c3ccc(F)cc23)C(=O)N[C@@H](Cc2ccccc2)C(=O)N[C@H](C(=O)N[C@H](CCC(=O)O)C(N)=O)C(C)(C)O)NC(=O)[C@H](Cc2ccc(O)cc2)NC(=O)[C@H](C(C)C)NC(=O)[C@H](CC(=O)O)NC(=O)[C@H](CC2CCN(CC(=O)O)CC2)NC(=O)[C@H](CCCCNC(=O)CN2CCN(CC(=O)O)CCN(CC(=O)O)CCN(CC(=O)O)CC2)NC(=O)CNC(=O)[C@H](C(C)(C)C)NC1=O` [compound 421, Ac-hLeu-Y-C-Tbg-G-Lys(DOTA)-Pip(CH2COOH)Ala-D-V-Y-C-5FW-F-hydroxyVal-dGlu-CONH2] (Ac-[hLeu]YC[Tle]GK(DOTA)[Ala(1-CH2CO2H-4-piperidyl)]DVYC[Trp(5-F)]F[Val(3-OH)][dE]-NH2; disulfide 3-11), 1 to 10 nM.
In turn, `CC(=O)N[C@@H](CCC(C)C)C(=O)N[C@@H](Cc1ccc(O)cc1)C(=O)N[C@H]1CSSC[C@@H](C(=O)N[C@@H](Cc2c[nH]c3ccc(F)cc23)C(=O)N[C@@H](Cc2ccccc2)C(=O)N[C@H](C(=O)N[C@H](CCCCNC(=O)CN2CCN(CC(=O)O)CCN(CC(=O)O)CCN(CC(=O)O)CC2)C(=O)O)[C@@H](C)O)NC(=O)[C@H](Cc2ccc(O)cc2)NC(=O)[C@H](C(C)C)NC(=O)[C@H](CC(=O)O)NC(=O)[C@H](CC2CCOCC2)NC(=O)[C@H](CCCCN)N(C)C(=O)CNC(=O)[C@H](C(C)(C)C)NC1=O` [compound 352, Ac-hLeu-Y-C-Tbg-G-NMeLys-ThpA-D-V-Y-C-5FW-F-Thr-dLys(DOTA)-COOH] (Ac-[hLeu]YC[Tle]G[NMeK][Ala(4-THP)]DVYC[Trp(5-F)]FT[dK](DOTA)-OH; disulfide 3-11) displayed an equilibrium dissociation constant (Kd) under setting [2] of 10 to 100 nM.
Under setting [1], `CC(=O)N[C@@H](CCC1CCC1)C(=O)N[C@@H](Cc1ccc(O)cc1)C(=O)N[C@H]1CSSC[C@@H](C(=O)N[C@@H](Cc2c[nH]c3ccc(F)cc23)C(=O)N[C@@H](Cc2ccccc2)C(=O)N[C@H](C(=O)N[C@H](CCCCNC(=O)CN2CCN(CC(=O)O)CCN(CC(=O)O)CCN(CC(=O)O)CC2)C(=O)O)C(C)(C)O)NC(=O)[C@H](Cc2ccc(O)cc2)NC(=O)[C@H](C(C)C)NC(=O)[C@H](CC(=O)O)NC(=O)[C@H](CC2CCOCC2)NC(=O)[C@H](CC2CCNCC2)NC(=O)CNC(=O)[C@H](C(C)(C)C)NC1=O` [compound 443, Ac-hCba-Y-C-Tbg-G-PipAla-ThpA-D-V-Y-C-5FW-F-hydroxyVal-dLys(DOTA)-COOH] (Ac-[X3]YC[Tle]G[Ala(piperidin-4-yl)][Ala(4-THP)]DVYC[Trp(5-F)]F[Val(3-OH)][dK](DOTA)-OH; disulfide 3-11) registered a Kd of less than 1 nM.

The term Kd denotes the equilibrium constant for the complex coming apart. Low values mean a tighter complex, high ones a looser complex.
